Results reported in a melting point compilation (Tetko et al.; mined from patent text by program, amines drawn as free bases though some values may be those of a salt).

First: Cc1cc(C(C)N(O)C(=O)NCCO)c(C)s1 (configuration not stated)
Second: Cc1cc(C(C)(C)C(=O)O)ccc1O
The melting point of the first is lower: 122 to 124 °C for the first, 145 to 146 °C for the second.

First: OCCC#Cc1ccc(-c2ccc(F)cc2)cc1
Second: CC(=O)Nc1c(-c2ccc(-c3ccccc3)cc2)nc2ccc(F)cc2c1C(=O)O
The melting point of the first is lower: 134 °C for the first, 256 to 259 °C for the second.

Going from `COc1ccn2cc(-c3ccc(C)c(C)c3)nc2c1` to `COc1ccc(-c2nc3c(F)cccc3s2)cc1OC`, the melting point falls from 175 °C to 129 °C.

Compared with `CC(C(=O)O)c1ccc(C(F)(F)F)cc1` (configuration not stated), `CC(C)(NC(=O)Oc1ccc([N+](=O)[O-])cc1)C(F)(F)F` is higher in melting point: 56 to 58 °C for the first, 77 to 80 °C for the second.

First: CCOC(=O)COc1cc2c(c(Cl)c1Cl)C(=O)C(c1ccc(F)cc1)C2 (configuration not stated)
Second: Fc1ccc(N2CCN(Cc3cn4cc(Cl)cc(Cl)c4n3)CC2)cc1
The melting point of the first is higher: 143 to 144 °C for the first, 126 to 128 °C for the second.

First: CC(=O)c1cc(C2CCCCC2)ccc1O
Second: CC(=O)N1CCC(C(=NO)c2ccc(Cl)cc2Cl)CC1
The melting point of the first is lower: less than 50 °C for the first, 167 to 168 °C for the second.

Compared with `CC(=O)c1cccc(N2CCN(CCC3CCC(NC(=O)CC#N)CC3)CC2)c1` (configuration not stated), `CC(CC(=O)O)CC(=O)c1ccc(N2CCC(c3ccccc3)CC2)cc1` (configuration not stated) is lower in melting point: 160 °C for the first, 134 to 135 °C for the second.

First: Cc1c(-c2ccncc2)[nH]c(-c2ccncc2)c1CO
Second: Cc1c[nH]c(-c2ccccc2)c1-c1ccccc1
The melting point of the first is higher: 258 to 261 °C for the first, 163 to 164 °C for the second.

First: N#Cc1c2n(c(=O)n1-c1cc(O)c(Cl)cc1F)CCCC2
Second: N#CC=C1CCN(c2ccc(N3C[C@H](CNC(=O)CO)OC3=O)cc2F)CC1
The melting point of the first is higher: 204 to 206 °C for the first, 68 to 70 °C for the second.

First: Oc1c(C(Nc2ccc(F)cn2)c2ccccn2)ccc2cccnc12 (configuration not stated)
Second: O=C(Nc1ccc2ccc(-c3ccc(Cl)cc3)nc2n1)c1ccccc1
The melting point of the first is higher: 165 to 168 °C for the first, 156 to 158 °C for the second.

First: COc1ccc(-c2nc3n(c2-c2ccc(OC)cc2)CCS3)cc1
Second: CN1CCC/C1=C\c1nc(-c2ccc(F)cc2)c(-c2ccncc2)n1CCCc1ccccc1
The melting point of the first is lower: 155 to 158 °C for the first, 171 to 172 °C for the second.

Compared with `N#CCC1(O)CCc2ccccc2C12CCCC2` (configuration not stated), `O=[N+]([O-])c1cccnc1N1CCc2ccccc2CC1` is lower in melting point: 165 to 166 °C for the first, 129 to 136 °C for the second.

Compared with `CC(=O)Nc1ncsc1-c1ccccc1`, `O=[N+]([O-])c1cccnc1Nc1ccccc1` is lower in melting point: 105 to 107 °C for the first, 66 to 68 °C for the second.

First: CC(C)Cc1ccc(C(C)COC(=O)c2cc(O)c3c(c2)C(=O)c2cccc(O)c2C3=O)cc1 (configuration not stated)
Second: CCOc1ccc(C2C(C(=O)c3ccc(C(C)C)cc3)=C(O)C(=O)N2c2ccc(C)nn2)nc1 (configuration not stated)
The melting point of the first is lower: 115 °C for the first, 198 to 199 °C for the second.

Compared with `CC(C)(C)c1cc(C(=O)NCCc2ccc(N)cc2)cc(C(C)(C)C)c1O`, `CC(C)(C)c1ccccc1-n1c(=O)[nH]c2c(C(N)=O)nc(-c3cccc(O)c3)nc21` is higher in melting point: 193 to 195 °C for the first, 294 to 297 °C for the second.

First: CCCCCCCCCCCCCCCCOCC(COP(=O)(O)O)OCCCCCCCCCCCCCCCC (configuration not stated)
Second: CCCCCCCCCCCCCCOc1ccc(C(=O)OC)cc1C(C)(C)C
The melting point of the first is higher: 157 to 159 °C for the first, 44 to 45 °C for the second.

First: COc1ccc(C=CC(=O)O)cc1C=O
Second: O=C(O)/C=C/c1nncn1-c1ccc(F)cc1
The melting point of the first is lower: 223 to 225 °C for the first, 226 to 229 °C for the second.

Compared with `CSC1NC(=O)N(Cc2ccco2)C(=O)N1`, `O=c1[nH]c2ccccc2c(=O)n1CCS` is lower in melting point: 209 to 211 °C for the first, 193 to 195 °C for the second.

First: O=C(NC(Cc1ccc(OCc2ccccc2)cc1)C(=O)O)c1cn2cc(-c3ccccc3F)ccc2n1 (configuration not stated)
Second: Nc1nc(N)c(C(=O)NC(Cc2ccccc2)C(=O)NCCNCC(O)COc2cccc3ccccc23)nc1Cl (configuration not stated)
The melting point of the first is higher: 238 °C for the first, 142 to 146 °C for the second.

Compared with `CC(C)(C(=O)O)n1c(=O)[nH]c2ccc(Cl)cc2c1=O`, `CCc1cc(=O)c(C(=O)c2ccccc2)c(C)[nH]1` is lower in melting point: 256 to 259 °C for the first, 169 to 170 °C for the second.

Compared with `CC(C)(C)C=NNC(=O)OCc1ccccc1`, `COC(=O)[C@H]1CN(CCO)CC[C@H]1NC(=O)OCc1ccccc1` is lower in melting point: 74 to 74.5 °C for the first, 73 °C for the second.

First: O=C(Nc1ccc2ccc(Cl)nc2n1)N1CC=CCC1
Second: O=C(O)c1cc2ccccc2c(Cl)c1O
The melting point of the first is lower: 173 °C for the first, 234 to 235 °C for the second.

First: Clc1cnc(Sc2ccccc2)nc1
Second: Oc1cccc2c(Cl)ncnc12
The melting point of the first is lower: 47 °C for the first, greater than 252 °C for the second.

Compared with `CC(C)NC[C@H](O)COc1ccc(Cc2nc(Br)c[nH]2)cc1`, `Cc1cnc(OCC(O)CNC(C)(C)C)c2cc(Cl)ccc12` (configuration not stated) is lower in melting point: 125 to 127 °C for the first, 116 to 117 °C for the second.

Going from `CC(C)Cn1c(=O)n(C)c(=O)c2c(Br)c(C(=O)c3nc4ccccc4n3C)sc21` to `Cc1cccc2c1nc(-c1ccccc1[N+](=O)[O-])n2CC(O)C(C)(C)C` (configuration not stated), the melting point falls from 258 °C to 204 °C.

First: Cc1cc(CCCCCCCc2ccc(C3=NCCO3)cc2)on1
Second: CCCCCCCNC(=O)Oc1ccc2c(c1)CCCN2C
The melting point of the first is higher: 66 to 67 °C for the first, 60 °C for the second.

Compared with `CC(=O)Nc1ccc2c(c1)CC2OC#N` (configuration not stated), `CC(=O)NCC(=O)c1cccc(Cl)c1Cl` is lower in melting point: 163 to 168 °C for the first, 107 to 109 °C for the second.

First: COC(=O)C1=C(C)NC(C)=C(S(=O)(=O)c2ccc(O)cc2)C1c1ccccc1Cl (configuration not stated)
Second: COC(=O)[C@H](Cc1ccc(NC(=O)c2c(Cl)cccc2Cl)cc1)NC(=O)c1c(C)cccc1Cl
The melting point of the first is lower: 223 to 225 °C for the first, 244 to 245 °C for the second.

`Cn1c(=O)cn[nH]c1=O` and `CC1(C)OC(=O)C(=Cc2ccc(Br)s2)C1=O` cannot be ordered by melting point: 173 °C for the first, 173 to 175 °C for the second.

`Ic1c2n(c3ccc(OC4CC4)cc13)CCC2` and `Nc1ccc2c(c1)N(C1CCN(CCc3ccc(F)cc3)CC1)CC2` cannot be ordered by melting point: 104 to 105 °C for the first, 104 to 106 °C for the second.

First: Cc1cc(Oc2c(F)cc(C(F)(F)F)cc2Cl)nn1C(N)=O
Second: Cc1cc(C(=O)NCCO)ncc1C(c1c(F)ccc(F)c1F)S(=O)(=O)CCC(F)(F)F (configuration not stated)
The melting point of the first is lower: 132 to 135 °C for the first, 146 to 147 °C for the second.

First: O=P(O)(O)CCCCCCCCCCCO
Second: CCCCCCCCCCn1c(=O)n(C2OC(CO)C(O)C2O)c2nc(N)[nH]c(=O)c21 (configuration not stated)
The melting point of the first is lower: 109 to 112 °C for the first, 174 to 176 °C for the second.

Compared with `COc1cc(CNc2nc(C)nc(C)c2Cl)ccc1Oc1ccc2ncc([N+](=O)[O-])n2n1`, `COCC(C)n1nc(-c2cnc(N)nc2-c2ccccc2)ccc1=O` (configuration not stated) is lower in melting point: 229 to 232 °C for the first, 180 to 181 °C for the second.

First: O=C1CCCN1Cc1ccc(CCn2cnc3cc(-c4ccc(Cl)cc4)sc3c2=O)cc1
Second: Oc1cccc(-c2ccc3nnn(Cc4ccc5ncccc5c4)c3n2)c1
The melting point of the first is lower: 218 to 221 °C for the first, 255 to 257 °C for the second.

Compared with `COC(=O)c1ccc(C(=O)OC)c(SCc2ccccc2)c1`, `COC(=O)c1cc(=O)c2ccccc2o1` is higher in melting point: 90 to 93.5 °C for the first, 120 to 122 °C for the second.

Compared with `CC(=O)[C@H]1CC=C(C)C(=O)C1`, `Cc1cc2ccccc2cc1C1CC(=O)C=C(O)C1` (configuration not stated) is higher in melting point: 35 °C for the first, 210 °C for the second.

First: O=C(Nc1nc(-c2ccco2)c(-c2ccncc2)s1)c1ccn(Cc2ccccc2)c(=O)c1
Second: CCNC(=O)c1ccc2cc(-c3csc(N(C)S(=O)(=O)c4ccccc4)n3)c(=O)[nH]c2c1
The melting point of the first is lower: 244 to 248 °C for the first, greater than 300 °C for the second.

Compared with `CC(C)(C)OC(=O)Nc1cc(Cl)c(I)cc1[N+](=O)[O-]`, `CCC(CC)Nc1cc(C(=O)OC)ccc1N1C(=O)CCC1(CO)CO` is higher in melting point: 82 to 84 °C for the first, 183 to 185 °C for the second.

Compared with `C#CC(C)(C)c1cc(N)no1`, `N#Cc1cc(N)c(Cl)cc1C#N` is higher in melting point: 98 to 100 °C for the first, 206 to 209 °C for the second.

First: CCC(=O)NCC1CC12c1cc(OC)ccc1-c1ccc(OC)cc12 (configuration not stated)
Second: COc1ccc2c(c1)C1Cc3ccccc3C1N2C (configuration not stated)
The melting point of the first is higher: 145 to 147 °C for the first, 72 °C for the second.

Compared with `OCC1(CO)CN(Cc2ccccc2)C1`, `COc1nc(I)cc(C(O)Cc2ccccc2)c1C` (configuration not stated) is lower in melting point: 86 to 87 °C for the first, 69 to 70 °C for the second.

First: CCCNCc1cnc(-c2ncn3c2[C@@H]2CCN2C(=O)c2sccc2-3)o1
Second: CCCCNC(=O)N1Cc2ccccc2CCC1=O
The melting point of the first is higher: 145 to 147 °C for the first, 84.5 to 85 °C for the second.

First: CC(=O)c1ccc2c(c1)C(n1ccccc1=O)C(O)C(C)(C)O2 (configuration not stated)
Second: CC1(CC(=O)O)OCCc2c1[nH]c1ccccc21 (configuration not stated)
The melting point of the first is higher: 260 °C for the first, 87 to 90 °C for the second.

First: CCCC(=O)C(=O)NCC(OCC)(OCC)c1ccncc1
Second: CCCCC(C)(C)C(NC(=O)c1ccc(Cl)cc1)NC(=NC#N)Nc1cccnc1 (configuration not stated)
The melting point of the first is lower: 95 to 96 °C for the first, 168 to 170 °C for the second.

First: COC(=O)c1nc(-c2ccc(Cl)c(OC)c2F)nc(N)c1C(F)CBr (configuration not stated)
Second: CCc1cnc2c(NC(=O)c3c(Cl)cccc3Cl)cccc2c1CCBr
The melting point of the first is lower: 144 to 146 °C for the first, 187 to 188 °C for the second.

First: COc1ccc(-c2cc3ccccc3[nH]2)cc1NC(=S)Nc1ccc(C(=O)O)cc1
Second: CSc1ccc(-c2cn3c(c2-c2ccccc2)CCC3)cc1
The melting point of the first is higher: 201 to 203 °C for the first, 112 °C for the second.

First: O=C(NC1N=C(c2ccccc2F)c2ccccc2NC1=O)c1ccsc1 (racemic)
Second: CCOC(=O)NC1N=C(c2ccccc2)c2ccccc2-n2c(C)nnc21 (configuration not stated)
The melting point of the first is higher: 238 to 239 °C for the first, 198 to 202 °C for the second.

First: Cc1c(-c2ccccc2)n(-c2c(F)c(F)c(F)c(F)c2F)c(-c2ccccc2)cc1=O
Second: CS(=O)c1nnc2c3ccccc3c(-c3ccccc3)nn12 (configuration not stated)
The melting point of the first is lower: 192 to 194 °C for the first, 215 to 217 °C for the second.

First: CC=Cc1nc2c(C(F)(F)F)cccc2c(O)c1C(=O)Nc1nccs1
Second: O=c1cccc2nccncc1-2
The melting point of the first is higher: 265 °C for the first, 145 to 147 °C for the second.

Compared with `CCOP(=O)(OCC)SCS(=O)C(C)(C)C` (configuration not stated), `CCCc1nccn1-c1nc(Cl)nc2c1ncn2C1OC(COC(C)=O)C(OC(C)=O)C1OC(C)=O` (configuration not stated) is higher in melting point: 34.5 to 36 °C for the first, 126 to 128 °C for the second.

First: O=C(O[C@@H]1CC[C@@H](c2cccc(F)c2F)Cc2ccc(Cl)nc21)N1CCC(n2c(=O)[nH]c3ncccc32)CC1
Second: O=C1NC(=O)c2ccc(Br)cc2/C1=C/NCCc1c[nH]c2ccccc12
The melting point of the first is lower: 248 °C for the first, 278 to 280 °C for the second.

First: CC(C)C[C@@H](/C=C/CCO)NP(=O)(c1ccccc1)c1ccccc1
Second: CN(C)C1(c2ccccc2)CC=C(c2cn(S(=O)(=O)c3ccccc3)c3ccccc23)CC1 (configuration not stated)
The melting point of the first is lower: 124 °C for the first, 165 to 167 °C for the second.

First: CC(=O)OC1CSC(Oc2cncc(-c3c(C)nn(C)c3C)c2)C(OC(C)=O)C1OC(C)=O (configuration not stated)
Second: Nc1ccc(F)c(C(=O)NCC(=O)O)c1
The melting point of the first is lower: 166 °C for the first, 252 to 254 °C for the second.

`CC(C)=C(C)CCC(C)C1CCC2(C)C3CCC4C(C)(C)C(O)CCC45CC35CCC12C` (configuration not stated) showed a melting point of 165 to 166 °C.
